# In patent US9771602B2 (priority 2013, dated 2017):
# Several values for one entry are separate records, joined by “and”; a condition that tells them apart may be missing. Identical values can stand only once. Counter-ions that a name gives are not always drawn. Like-named read-outs stand apart in the source and are kept apart here.
# Key:
# [1] = tested on: ethanologen yeast PNY 827; assay: microbe, parasite or virus in culture; type: cell-based, Saccharomyces cerevisiae; settings: for Ki: read-out: KI (inhibitory constant on growth)
# [2] = tested on: S. cerevisiae yeast strains PNY0860-1A, PNY827 and CEN.PK 113-7D; assay: Filter-disk growth inhibition assay with AHAS inhibitors on top agar plates; type: cell-based; settings: filter disks containing 20 μg or 10 μg AHAS inhibitor; 72 hours at 30° C.
# [3] = tested on: NYLA84 ILV2-410::loxP71/66 with pLH468 and pLH475-JEA1; type: cell-based, S. cerevisiae; settings: 0 μg/ml to 50 μg/ml sulfometuron methyl; strains expressing cytosolic acetolactate synthase
# [4] = tested on: mixed cultures of ethanologen S. cerevisiae PNY 827 and the butanologen yeast S. cerevisiae PNY 2129; type: cell-based
# [5] = fit to hybrid inhibition kinetics model
# [6] = Saccharomyces cerevisiae, PNY827, read-out: IC50 on growth (inhibitor concentration with 50% μ°max)
# [7] = fit to squared inhibition kinetics
structure (smiles),measurement,setting,value
"O=S([O-])[O-].[Na+].[Na+] [sulfite, sodium sulfite]",OD600corr [ ],[1],0.081 and 0.087 and 0.088 and 0.092
same,OD600corr [ ],"[1]; 1 mM (F8-su-1), time 1.00 h",0.082
same,OD600corr [ ],"[1]; 1 mM (F8-su-1), time 2.25 h",0.121
same,OD600corr [ ],"[1]; 1 mM (F8-su-1), time 3.25 h",0.185
same,OD600corr [ ],"[1]; 1 mM (F8-su-1), time 4.25 h",0.307
same,OD600corr [ ],"[1]; 1 mM (F8-su-1), time 6.00 h",1.102
same,OD600corr [ ],"[1]; 1 mM (F8-su-1), time 23.67 h",11.157
same,μmax (maximum specific growth rate),[1]; 1 mM inhibitor,0.59 L/h
same,OD600corr [ ],"[1]; 2 mM (F9-su-2), time 1.00 h",0.086
same,OD600corr [ ],"[1]; 2 mM (F9-su-2), time 2.25 h",0.120
same,OD600corr [ ],"[1]; 2 mM (F9-su-2), time 3.25 h",0.173
same,OD600corr [ ],"[1]; 2 mM (F9-su-2), time 4.25 h",0.265
same,OD600corr [ ],"[1]; 2 mM (F9-su-2), time 6.00 h",0.887
same,OD600corr [ ],"[1]; 2 mM (F9-su-2), time 23.67 h",12.217
same,μmax (maximum specific growth rate),[1]; 2 mM inhibitor,0.54 L/h
same,OD600corr [ ],"[1]; 5 mM (F10-su-3), time 1.00 h",0.090
same,OD600corr [ ],"[1]; 5 mM (F10-su-3), time 2.25 h",0.116
same,OD600corr [ ],"[1]; 5 mM (F10-su-3), time 3.25 h",0.153
same,OD600corr [ ],"[1]; 5 mM (F10-su-3), time 4.25 h",0.208
same,OD600corr [ ],"[1]; 5 mM (F10-su-3), time 6.00 h",0.392
same,OD600corr [ ],"[1]; 5 mM (F10-su-3), time 9.58 h",2.572
same,OD600corr [ ],"[1]; 5 mM (F10-su-3), time 23.67 h",11.717
same,μmax (maximum specific growth rate),[1]; 5 mM inhibitor,0.33 L/h
same,OD600corr [ ],"[1]; 10 mM (F11-su-4), time 1.00 h",0.085
same,OD600corr [ ],"[1]; 10 mM (F11-su-4), time 2.25 h",0.111
same,OD600corr [ ],"[1]; 10 mM (F11-su-4), time 3.25 h",0.140
same,OD600corr [ ],"[1]; 10 mM (F11-su-4), time 4.25 h",0.175
same,OD600corr [ ],"[1]; 10 mM (F11-su-4), time 6.00 h",0.268
same,OD600corr [ ],"[1]; 10 mM (F11-su-4), time 9.58 h",1.102
same,OD600corr [ ],"[1]; 10 mM (F11-su-4), time 23.67 h",11.437
same,μmax (maximum specific growth rate),[1]; 10 mM inhibitor,0.23 L/h
same,OD600corr [ ],"[1]; 20 mM (F3-su-1), time 1.50 h",0.099
same,OD600corr [ ],"[1]; 20 mM (F3-su-1), time 2.67 h",0.115
same,OD600corr [ ],"[1]; 20 mM (F3-su-1), time 4.00 h",0.150
same,OD600corr [ ],"[1]; 20 mM (F3-su-1), time 5.33 h",0.182
same,OD600corr [ ],"[1]; 20 mM (F3-su-1), time 6.75 h",0.226
same,OD600corr [ ],"[1]; 20 mM (F3-su-1), time 9.42 h",0.396
same,OD600corr [ ],"[1]; 20 mM (F3-su-1), time 23.25 h",9.697
same,μmax (maximum specific growth rate),[1]; 20 mM inhibitor,0.18 L/h
same,OD600corr [ ],"[1]; 50 mM (F4-su-2), time 1.50 h",0.095
same,OD600corr [ ],"[1]; 50 mM (F4-su-2), time 2.67 h",0.116
same,OD600corr [ ],"[1]; 50 mM (F4-su-2), time 4.00 h",0.135
same,OD600corr [ ],"[1]; 50 mM (F4-su-2), time 5.33 h",0.161
same,OD600corr [ ],"[1]; 50 mM (F4-su-2), time 6.75 h",0.192
same,OD600corr [ ],"[1]; 50 mM (F4-su-2), time 9.42 h",0.295
same,OD600corr [ ],"[1]; 50 mM (F4-su-2), time 23.25 h",10.717
same,μmax (maximum specific growth rate),[1]; 50 mM inhibitor,0.14 L/h
same,μ°max 1,[1]; [5],0.46 L/h
same,μ°max 2,[1]; [5],0.15 L/h
same,Ki,[1]; [5],4.4 mM
same,overall observable μ°max,[1]; predicted by hybrid inhibition kinetics model,0.61 L/h
same,IC50,"[1]; read-out: IC50 on growth (inhibitor concentration with 50% μ°max), derived from inhibition kinetics and fitted parameters",6.2 mM
"O=CC(=O)O [glyoxylic acid, glyoxylic acid sodium salt monohydrate]",μ°max (fitted maximum specific growth rate without inhibitor),[1],0.60 L/h
same,μmax (maximum specific growth rate),[1]; sodium salt monohydrate,0.59 L/h and 0.55 L/h
"COc1cc(OC)nc(NC(=O)NS(=O)(=O)c2ncccc2C(=O)N(C)C)n1 [Accent, nicosulfuron methyl]",zones of growth inhibition (inhibition of yeast growth),[2],did not inhibit
COC(=O)c1ccccc1S(=O)(=O)NC(=O)Nc1nc(C)cc(C)n1 [sulfometuron methyl],zones of growth inhibition (inhibition of yeast growth),[2],inhibit growth
same,overall observable μ°max,[1],0.59 L/h
same,μmax (maximum specific growth rate),[1],0.04 L/h and 0.05 L/h
same,μ°max 1,[1],0.55 L/h
same,μ°max 2,[1],0.04 L/h
same,IC50,[1]; [6],< 0.1 mM
same,Ki,[1]; [5],< 0.1 mM
same,resistance (growth scored after overnight incubation),[3],higher resistance
C[S+](C)[O-] [DMSO],μmax (maximum specific growth rate),[1],0.56 L/h
same,Ki,[1],~16 mM
O=C(O)c1cn[nH]c1 [4-pyrazolecarboxylic acid],inhibitor-based mumax (corrected for effect of DMSO),[1],0.59 L/h and 0.50 L/h
same,μ°max (fitted maximum specific growth rate without inhibitor),[1],0.60 L/h
same,Ki,[1]; [7],100 mM
"COC(=O)c1sccc1S(=O)(=O)NC(=O)Nc1nc(C)nc(OC)n1 [Harmony, thifensulfuron methyl]",zones of growth inhibition (inhibition of yeast growth),[2],did not inhibit
"O=C/C=C/c1ccccc1 [cinnamaldehyde, trans-cinnamaldehyde]",inhibitor-based mumax (corrected for effect of DMSO),[1],0.64 L/h and 0.63 L/h and 0.55 L/h
same,observed μmax,[1],0.64 L/h and 0.63 L/h and 0.55 L/h
same,μ°max (fitted maximum specific growth rate without inhibitor),[1],0.62 L/h
same,IC50,[1]; [6],0.25 mM
same,Ki,[1]; [7],0.25 mM
same,cell growth,"[1]; non-DMSO experiments: 200 mM, 100 mM, 50 mM, 25 mM, 10 mM, 1 mM",in none of the non-DMSO experiments any cell growth was observed
same,DHIV + DHMB,[4],0.0 mM
same,ratio of butanol vs. ethanol produced compared with no addition,"[4]; 250 μM, inoculum ratios 1:1 and 1:11, EPT=8 h and EPT=48 h",lower
same,growth of mixed cultures,"[4]; 25 mM, both mixed cultures (1:1 and 1:11), EPT=8 h and EPT=48 h",No growth
"CCOC(=O)c1ccccc1S(=O)(=O)NC(=O)Nc1nc(Cl)cc(OC)n1 [Classic, chlorimuron ethyl]",zones of growth inhibition (inhibition of yeast growth),[2],inhibit growth
"COC(=O)c1ccccc1S(=O)(=O)NC(=O)Nc1nc(C)nc(OC)n1 [Ally, metsulfuron methyl]",zones of growth inhibition (inhibition of yeast growth),[2],inhibit growth
Cc1cn[nH]c1.Cl [4-methylpyrazole hydrochloride],μ°max (fitted maximum specific growth rate without inhibitor),[1],0.58 L/h
same,Ki,[1]; [7],41 mM
same,inhibitor-based mumax (corrected for effect of DMSO),[1]; hydrochloride,0.48 L/h and 0.38 L/h
same,observed μmax,[1]; hydrochloride,0.48 L/h and 0.24 L/h
c1cn[nH]c1 [pyrazole],overall observable μ°max,[1],0.60 L/h
same,μ°max 1,[1],0.52 L/h
same,μ°max 2,[1],0.08 L/h
same,IC50,[1]; [6],3.3 mM
same,Ki,[1]; [5],2.8 mM
same,DHIV + DHMB,[4],0.0 mM
same,butanol-to-ethanol ratio compared with no inhibitor,"[4]; 3 mM and 30 mM, inoculum ratios 1:1 and 1:11, EPT=8 h",dramatically increased
same,butanol:ethanol ratio compared with no inhibitor,"[4]; 30 mM, both inoculum ratios, EPT=48 h",significantly increased
C=O [formaldehyde],μ°max (fitted maximum specific growth rate without inhibitor),[1],0.59 L/h
same,IC50,[1]; [6],0.9 mM
